Data taken from patent publication US7589065B2, “Catalysis of the cis/trans-isomerisation of secondary amide peptide compounds” (Max-Planck Gesellschaft zur Forderung der Wissenschaften, …, priority 2001, dated 2009).

Legend:
DnaK = DnaK (Escherichia coli, UniProt P0A6Y8); test: biochemical
Procedure: (§1) RNAse T1 contains a Ser-Pro sequence with a cis conformation at the sequence site 38/39. […] In detail, the protein is unfolded by suitable additives and the renaturation rate is measured and registered after removal of the additives, e.g. by rapid dilution. As is shown (Scholz et al., Biol. chem. 1998, March; 379(3): 361-5), the exchange of the prolin 39 with an alanine (P39A) leads to a protein mutant whose foldback rate is […] influenced by this peptide bond. Added APIase, dependent on concentration, catalyses the isomerisation of this non-prolyl peptide bond and, thus, the foldback of the P39A mutant.
(§2) […] RNAse T1 P39A was incubated with 5 M guanidinium-Cl and 0.1 M Tris-HCl at pH 8 at 15° C. for 60 min. The foldback at 15° C. was started by a 40-fold dilution of the unfolded protein in foldback buffer (0.1 Tris-HCl, 50 mM KCl, 11 mM MgCl2) at pH 8. The foldback was determined as increase of the protein fluorescence at 320 nm (10 nm width of band) with excitation of 278 nm (1.5 nm width of band) with a Jobin-Yvon-Spex Fluoromax-2 fluorescence spectrometer.

APIase activity of DnaK = target: T1, APIase activity of DnaK (Escherichia coli, UniProt P0A6Y8); test: Inhibition of the APIase activity of DnaK in the spectrophotometric Ala-Leu activity test; type: biochemical
T1 construct: purchased SIGMA-ALDRICH CHEMIE GmbH, Germany
T1 sequence (P0A6Y8 whole entry): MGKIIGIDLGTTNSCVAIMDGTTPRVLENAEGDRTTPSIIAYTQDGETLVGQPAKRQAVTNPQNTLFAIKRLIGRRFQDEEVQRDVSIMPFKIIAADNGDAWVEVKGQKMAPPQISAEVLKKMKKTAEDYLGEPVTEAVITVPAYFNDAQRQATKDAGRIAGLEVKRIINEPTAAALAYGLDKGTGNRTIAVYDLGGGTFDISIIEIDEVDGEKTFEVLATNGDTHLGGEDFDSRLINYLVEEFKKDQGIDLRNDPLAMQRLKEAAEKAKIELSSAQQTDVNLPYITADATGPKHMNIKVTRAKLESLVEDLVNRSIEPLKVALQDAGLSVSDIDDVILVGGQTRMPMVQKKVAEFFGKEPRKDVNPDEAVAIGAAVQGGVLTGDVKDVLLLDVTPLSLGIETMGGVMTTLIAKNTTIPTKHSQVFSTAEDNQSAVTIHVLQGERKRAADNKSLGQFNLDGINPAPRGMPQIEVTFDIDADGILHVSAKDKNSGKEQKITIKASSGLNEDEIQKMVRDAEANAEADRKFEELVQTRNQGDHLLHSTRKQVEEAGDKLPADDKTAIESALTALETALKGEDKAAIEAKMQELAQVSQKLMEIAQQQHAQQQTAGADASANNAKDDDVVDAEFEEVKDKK
Procedure: The peptide bond of the substrate Ala-Leu is to about 99% in the trans conformation at pH 7.4. An increase of the proton concentration of the aqueous Ala-Leu solution to about 100 mM results in a shift of the equilibrium of the conformations to a higher content of the peptide with the cis conformation. […] The isomerisation rate can be measured when the substrate is subjected to a pH modification that has an influence on the cis/trans equilibrium of the substrate and when the rate of the pH modification is higher than the isomerisation rate of the substrate. In this context, the isomerisation rate corresponds to the sum of the individual rates cis to trans and trans to cis of the two conformation isomers of the substrate. In the present example, a so-called Stopped-Flow device from the company Applied Photophysics Ltd. (England) is used. This spectroscopic device makes a rapid mixture of two components and, subsequently, a collection of spectroscopic data, which is rapid and […], possible. Moreover, an accompanying software makes it possible for the rate constants (kobs) to be calculated while assuming a concentration/time law that corresponds to a so-called “first-order time law”. […]

[1] = Stopped-flow spectroscopic test of catalysis of the cis/trans isomerisation of Ala-Leu (APIase activity); type: biochemical
Text: The peptide bond of the substrate Ala-Leu is to about 99% in the trans conformation at pH 7.4. […] The isomerisation rate can be measured when the substrate is subjected to a pH modification that has an influence on the cis/trans equilibrium of the substrate and when the rate of the pH modification is higher than the isomerisation rate of the substrate. In this context, the isomerisation rate corresponds to the sum of the individual rates cis to trans and trans to cis of the two conformation isomers of the substrate. In the present example, a so-called Stopped-Flow device from the company Applied Photophysics Ltd. (England) is used. This spectroscopic device makes a rapid mixture of two components and, subsequently, a collection of spectroscopic data, which is rapid and time-independent, possible. Moreover, an accompanying software makes it possible for the rate constants (kobs) to be calculated while assuming a concentration/time law that corresponds to a so-called “first-order time law”. For the detection of the catalysis, the following assay was selected: • Stock solution Ala-Leu (Bachem, Switzerland) 10 mM dissolved in Aqua dest. with pH 2.0, adjusted by means of HCl • Buffer solution: 12.5 mM Tris, 50 mM KCl, 11 mM MgCl2 with HCl adjusted to pH 8.8 DnaK (SIGMA-ALDRICH CHEMIE GmbH, Germany), or produced in a molecular biological way
After mixing the components in the Stopped-Flow device, the reaction solution had the following concentrations: 1.66 mM Ala-Leu, 10.4 mM Tris, 41.6 mM KCl, 9.2 mM MgCl2. The pH was 7.6. All the solutions were kept constant at a temperature of 25° C.
The thickness of the coating of the silica cuvets was 2 mm, the measuring wave length was 220 nm.
The following solutions were used: • Buffer solution: 12.5 mM Tris, 50 mM KCl, 11 mM MgCl2. • Substrate solution: 20 mM Ala-Leu, dissolved in Aqua dest. at pH 2.0. • DnaK stock solution: 20 μM in buffer solution a
The pH of the solution in the cuvet was 7.3 each. The error lines indicated result from three independent measurements for the determination of the rate constant kobs with a DnaK concentration.
In order to establish whether Cyp18 catalyses the cis/trans isomerisation of the dipeptide Ala-Leu, the isomerisation rate was analysed in the presence of up to 8.4 μM Cyp18: • Human Cyp18 was either bought (SIGMA-ALDRICH CHEMIE GmbH, Germany) or produced as recombinant enzyme (E. coli cultures). The cyclophilin concentration of the cyclophilin stock solution of 1.14 mM was determined by means of titration against the cyclophilin inhibitor cyclosporin A (SIGMA-ALDRICH CHEMIE GmbH, Germany). The substrate Ala-Leu (BACHEM, Switzerland) used was produced as 10 mM stock solution in water with a pH of 2.0. The buffer solution used contained a mixture of the following chemicals: 12 mM Tris, 50 mM KCl, 11 mM MgCI2 and was adjusted with HCl to a pH of 8.8. The measurement of the isomerisation rate of the substrate took place with the Stopped-Flow-Photometer (Applied Photophysics Ltd., England) at 25°C. with 228 nm using 1 cm quartz cuvets. By adding the substrate to the mixture of buffer and Cyp18, solutions were produced in the cuvet with Cyp18 concentrations of 0, 208, 416, 625, 833 and 8,330 nM and 1.66 mM Ala-Leu each with a pH of 7.9.

[2] = 2D 1H NMR exchange (NOESY) measurement of cis/trans isomerisation in the pentapeptide; type: biochemical; settings: for relative intensity of the cross signal of the peptide bond Ala-Tyr / relative intensity of the cross signal of the peptide bond Tyr-Ala: 25 mM pentapeptide, pH 7.1, 278° K; for relative intensity of the cross signal of the peptide bond Ala-Tyr: no addition 3.50 ± 0.51; for relative intensity of the cross signal of the peptide bond Tyr-Ala: no addition 3.89 ± 0.32
Text: A further possibility, only described in 1998, is the determination of the cis/trans isomerisation rate of secondary amide peptide bonds containing aromatic amino acids by means of 2D 1H NMR exchange experiments (Scherer G. et al., 1998, JACS 120:5568-5574). In Example 8, this NMR method is used to determine a catalytic acceleration of the cis/trans isomerisation of the peptide bonds Ala-Tyr and Tyr-Ala within the pentapeptide Ala-Ala-Tyr-Ala-Ala. The acceleration is accomplished by catalytic amounts of DnaK.
NMR Device: Bruker DRX-500, Equipped with z-gradient
• FIG. 8: The alanine methyl region from the two-dimensional exchange 1H-NMR spectrum of 25 mM Ala-Ala-Tyr-Ala-Ala in 25 mM Tris, 11 mM MgCl2, 50 mM KCl, 9:1H2O:D2O, pH 7.1 at 278° K. The mixing time of the phase-sensitive NOESY was 330 ms. Each FID had 184 scans. The amount of data from t1×t2=512×8192 points covered a spectral range of 5501 Hz×5482 Hz. The correction of the base line was carried out by adjustment with a polynom of fifth order in the F2 dimension. […] The experiment was carried out under identical conditions as described above. In addition, 20 μM DnaK was contained in the measuring solution.
In a further analysis of the method of the two-dimensional NOESY experiment illustrated in Example 8, the cross signals can be quantified by means of common mathematical techniques.

RNAse T1 P39A = test: Foldback of RNAse T1 P39A catalysed by APIase; type: biochemical; settings: 1 μM DnaK, 15° C., pH 8; without APIase 6.67×10^−4
Procedure: as §1, §2

[3] = DnaK 250 and 1,000 nM, 10° C., pH 7.8
Procedure: The details of Example 5 are described as follows: • Measuring device: Spectrophotometer Diodenarray HP8452A (Hewlett Packard, USA) • Substrate: Suc-Ala-Phe-Pro-Phe-NHNp (SEQ ID NO:2) (BACHEM, Switzerland) • Protease: Chymotrypsin (Merck, Germany) • Measure temperature: 10° C. • Buffer: 35 mM Hepes, pH 7.8 • Protease solution for use: 5 mg protease per ml buffer • Substrate solution for use: 35 mg substrate dissolved in 1 ml DMSO • DnaK solution for use: 30 μM in buffer • Cuvet: 1 ml quartz cuvet, thickness of layer 1 cm • Measuring wave length: 390 nm
Process: After attemperating a mixture of substrate, DnaK and buffer, the reaction is started by rapid addition and homogenous distribution of the protease solution for use. In this way, a chymotrypsin concentration of 0.83 mg/ml is achieved in the cuvet. By means of the substrate amount contained in the cuvet, a final extinction of about 0.43 is accomplished after complete turnover of the substrate. The concentrations of DnaK contained in the cuvet were 0.250 and 1,000 nM.

Sequence of DnaK (P0A6Y8 whole entry): as above

CCCCCCCCCCCC(=O)NC(CC(=O)O)C(=O)O (stereo not shown) [28/B7]
IC50 (DnaK): 177 µM

CCCCCCCCCCCC(=O)NC(Cc1c[nH]c2ccccc12)C(=O)O (stereo not shown) [28/C8]
IC50 (DnaK): 55.3 µM

CCCCCCCC/C=C\CCCCCCCC(=O)NC(CC(C)C)C(=O)NCCc1ccccc1 (stereo not shown) [30/B4]
IC50 (DnaK): 7.5 µM

CCCCCCCCCCCCCCCC(=O)NCc1ccc(C(=O)NCC2CCC(C(=O)O)CC2)cc1 (stereo not shown) [37/B11]
IC50 (DnaK): 5.9 µM

CSCC[C@H](NC(=O)[C@H](CC(C)C)NC(=O)CNC(=O)[C@H](Cc1ccccc1)NC(=O)[C@H](Cc1ccccc1)NC(=O)[C@H](CCC(N)=O)NC(=O)[C@H](CCC(N)=O)NC(=O)[C@@H]1CCCN1C(=O)[C@H](CCCCN)NC(=O)[C@@H]1CCCN1C(=O)[C@@H](N)CCCN=C(N)N)C(N)=O [substance P]
IC50 (APIase activity of DnaK): 76 ± 16 µM

Cyp18: human peptidyl-prolyl cis/trans isomerase of the cyclophilin family, EC 5.2.1.8, P05092
rate constants kobs of the isomerisation of Ala-Leu ([1]; Cyp18 0 to 8,330 nM, independent of concentration, 1.66 mM Ala-Leu, pH 7.9, 25° C., 228 nm): about 0.43±0.03 s^−1 | acceleration of the cis to trans reaction of Ala-Leu (in words) ([1]; up to 8.4 μM Cyp18, observation period 20 seconds): no acceleration of the cis to trans reaction could be observed

DnaK: protein with APIase activity, bought from SIGMA-ALDRICH or produced in a molecular biological way
change of the relative intensity of the Ala-Tyr cross signal (in words) ([2]; 20 μM DnaK): nearly doubles | influence on the cis/trans isomerisation rate of the Tyr-Ala peptide bond (in words) ([2]; 20 μM DnaK): no influence | relative intensity of the cross signal of the peptide bond Ala-Tyr ([2]; 20 μM addition): 6.37 ± 0.57 | relative intensity of the cross signal of the peptide bond Tyr-Ala ([2]; 20 μM addition): 3.39 ± 0.45 | rate constant of the foldback of RNAse T1 P39A (RNAse T1 P39A): 9.77×10^−4 -s | rate constant (kobs) of the cis/trans isomerisation of Ala-Leu ([1]; 624 nM DnaK, 1.66 mM Ala-Leu, pH 7.6, 25° C., non-catalysed reaction 0.36 s^−1): 0.55 s⁻¹ | time until the conformation equilibrium occurs ([1]; 624 nM DnaK, without DnaK about 20 seconds): less than 10 seconds | influence on the peptidyl-prolyl cis/trans isomerisation rate of the substrate (in words) [3]: did not show a visible influence on the cis/trans isomerisation rate of the substrate

FKBP12: peptidyl-prolyl cis/trans isomerase from SIGMA-ALDRICH
catalysis of the cis/trans isomerisation of the Ala-Tyr and Tyr-Ala peptide bonds (in words) ([2]; 20 μM addition): neither catalyse | relative intensity of the cross signal of the peptide bond Ala-Tyr ([2]; 20 μM addition): 3.94 ± 0.87 | relative intensity of the cross signal of the peptide bond Tyr-Ala ([2]; 20 μM addition): 2.68 ± 0.75

bovine serum albumin: purified reference protein (SIGMA-ALDRICH)
catalysis of the cis/trans isomerisation of the dipeptide Ala-Leu (in words) ([1]; 1 μM purified protein instead of Cyp18): not able to catalyse the cis/trans isomerisation of the dipeptide
